Patent US6355799B1, “Substituted benzene compounds, process for their preparation, and herbicidal and defoliant compositions containing them” (ISK Americas Incorporated, priority 1997, dated 2002)

Key:
Type in all cases: in vivo
[1] = test system: field corn (Zea mays L., var. Dekalb 535, CORN); assay: Pre-emerge test, crop safety; settings: rated 14 days after application, 0 = no damage, 100 = complete death
Procedure, shortened: (§1)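 Visual ratings on a 0-100 scale (0 no damage, 100 all plants dead) were taken at 14 days after treatment. Rates of 15-1000 g ai/ha in acetone, 187 l/ha, were sprayed onto soil one day after planting (pre-emerge) or onto 2-3 leaf plants with 0.25% v/v surfactant (post-emerge).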

[2] = test system: upland rice (Oryza sp., var. Tebonnet, RICE); assay: Pre-emerge test, crop safety; settings: rated 14 days after application, 0 = no damage, 100 = complete death
Procedure, shortened: as §1

[3] = test system: redroot pigweed (Amaranthus retroflexus, AMARE); assay: Pre-emerge test, greenhouse herbicide activity screening; settings: rated 14 days after application, 0 = no damage, 100 = complete death
Procedure, shortened: (§2)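 Rating: 0–100 visual injury, 14 DAA. Application: acetone, 187 l/ha, 15–1000 g ai/ha, flat-fan track sprayer with nozzle 40–45 cm above soil or canopy. Post-emerge runs used 0.25% v/v surfactant on 2–3 leaf plants.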

[4] = test system: velvetleaf (Abutilon theophrasti, ABUTH); assay: Post-emerge test, greenhouse herbicide activity screening; settings: post-emerge, 14 days after application, rating scale 0-100
Procedure, shortened: (§3)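 Sandy loam pots; pre-emerge: sown 1 d pre-spray, surface-watered after, then bottom-watered. Post-emerge: sown 8–21 d before, 2–3 leaf stage, + 0.25% v/v NIS, bottom-watered. Acetone, 187 l/ha track spray, 15–1000 g ai/ha. 0–100 injury score, day 14.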

[5] = test system: sicklepod (Cassia obtusifolia, CASOB); assay: as above; settings: post-emerge, 14 days after application, rating scale 0-100
Procedure, shortened: as §3

[6] = test system: redroot pigweed (Amaranthus retroflexus, AMARE); assay: as above; settings: post-emerge, 14 days after application, rating scale 0-100
Procedure, shortened: as §3

[7] = test system: barnyardgrass (Echinochloa crus-galli, ECHCG); assay: as above; settings: post-emerge, 14 days after application, rating scale 0-100
Procedure, shortened: as §3

[8] = test system: lambsquarters (Chenopodium album, CHEAL); assay: as above; settings: post-emerge, 14 days after application, rating scale 0-100
Procedure, shortened: as §3

[9] = test system: ivyleaf morningglory (Ipomoea hederacea, IPOHE); assay: as above; settings: post-emerge, 14 days after application, rating scale 0-100
Procedure, shortened: as §3

[10] = test system: common ragweed (Ambrosia artemisizfolia L., AMBEL); assay: as above; settings: post-emerge, 14 days after application, rating scale 0-100
Procedure, shortened: as §3

[11] = test system: large crabgrass (Digitaria sanguinalis, DIGSA); assay: as above; settings: post-emerge, 14 days after application, rating scale 0-100
Procedure, shortened: as §3

[12] = test system: johnsongrass (Sorghum halepense, SORHA); assay: as above; settings: post-emerge, 14 days after application, rating scale 0-100
Procedure, shortened: as §3

[13] = test system: green foxtail (Setaria viridis, SETVI); assay: as above; settings: post-emerge, 14 days after application, rating scale 0-100
Procedure, shortened: as §3

[14] = test system: field corn (Zea mays L., var. Dekalb 535, CORN); assay: Post-emerge test, crop safety; settings: post-emerge, 14 days after application, rating scale 0-100
Procedure, shortened: (§4)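 Plants grown in 10 cm pots of sandy loam mix received acetone-dissolved compounds through a moving flat-fan nozzle. Doses ranged from 15 to 1000 g ai/ha. Pre-emerge pots were seeded one day earlier, post-emerge pots 8–21 days earlier. Fourteen days on, each pot was graded 0–100 for damage.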

[15] = test system: upland rice (Oryza sp., var. Tebonnet, RICE); assay: Post-emerge test, crop safety; settings: post-emerge, 14 days after application, rating scale 0-100
Procedure, shortened: as §4

[16] = test system: velvetleaf (Abutilon theophrasti, ABUTH); assay: Pre-emerge test, greenhouse herbicide activity screening; settings: rated 14 days after application, 0 = no damage, 100 = complete death
Procedure, shortened: as §2

[17] = test system: sicklepod (Cassia obtusifolia, CASOB); assay: as above; settings: rated 14 days after application, 0 = no damage, 100 = complete death
Procedure, shortened: as §2

[18] = test system: barnyardgrass (Echinochloa crus-galli, ECHCG); assay: as above; settings: rated 14 days after application, 0 = no damage, 100 = complete death
Procedure, shortened: as §2

[19] = test system: lambsquarters (Chenopodium album, CHEAL); assay: as above; settings: rated 14 days after application, 0 = no damage, 100 = complete death
Procedure, shortened: as §2

[20] = test system: ivyleaf morningglory (Ipomoea hederacea, IPOHE); assay: as above; settings: rated 14 days after application, 0 = no damage, 100 = complete death
Procedure, shortened: as §2

[21] = test system: common ragweed (Ambrosia artemisizfolia L., AMBEL); assay: as above; settings: rated 14 days after application, 0 = no damage, 100 = complete death
Procedure, shortened: as §2

[22] = test system: large crabgrass (Digitaria sanguinalis, DIGSA); assay: as above; settings: rated 14 days after application, 0 = no damage, 100 = complete death
Procedure, shortened: as §2

[23] = test system: johnsongrass (Sorghum halepense, SORHA); assay: as above; settings: rated 14 days after application, 0 = no damage, 100 = complete death
Procedure, shortened: as §2

[24] = test system: green foxtail (Setaria viridis, SETVI); assay: as above; settings: rated 14 days after application, 0 = no damage, 100 = complete death
Procedure, shortened: as §2

## COc1c(Cl)cc(F)c(-n2c(=O)cc(C(F)(F)F)n(C)c2=O)c1NC(=O)c1ccc(Br)cc1 [2-61]
[1]; 63 g ai/ha
  Pre-emerge phytotoxicity rating (0-100), crop damage, CORN: 10
[1]; 250 g ai/ha
  Pre-emerge phytotoxicity rating (0-100), crop damage, CORN: 95
[2]; 63 g ai/ha
  Pre-emerge phytotoxicity rating (0-100), crop damage, RICE: 75
[2]; 250 g ai/ha
  Pre-emerge phytotoxicity rating (0-100), crop damage, RICE: 95
[3]; 63 g ai/ha
  Pre-emerge Herbicidal Activity, phytotoxicity rating (0-100), AMARE: 100
[3]; 250 g ai/ha
  Pre-emerge Herbicidal Activity, phytotoxicity rating (0-100), AMARE: 100
[4]; 63 g ai/ha
  phytotoxicity rating ABUTH: 100
[4]; 250 g ai/ha
  phytotoxicity rating ABUTH: 100
[5]; 63 g ai/ha
  phytotoxicity rating CASOB: 100
[5]; 250 g ai/ha
  phytotoxicity rating CASOB: 100
[6]; 63 g ai/ha
  phytotoxicity rating AMARE: 100
[6]; 250 g ai/ha
  phytotoxicity rating AMARE: 100
[7]; 63 g ai/ha
  phytotoxicity rating ECHCG: 40
[7]; 250 g ai/ha
  phytotoxicity rating ECHCG: 70
[8]; 63 g ai/ha
  phytotoxicity rating CHEAL: 100
[8]; 250 g ai/ha
  phytotoxicity rating CHEAL: 100
[9]; 63 g ai/ha
  phytotoxicity rating IPOHE: 100
[9]; 250 g ai/ha
  phytotoxicity rating IPOHE: 100
[10]; 63 g ai/ha
  phytotoxicity rating AMBEL: 100
[10]; 250 g ai/ha
  phytotoxicity rating AMBEL: 95
[11]; 63 g ai/ha
  phytotoxicity rating DIGSA: 20
[11]; 250 g ai/ha
  phytotoxicity rating DIGSA: 50
[12]; 63 g ai/ha
  phytotoxicity rating SORHA: 20
[12]; 250 g ai/ha
  phytotoxicity rating SORHA: 70
[13]; 63 g ai/ha
  phytotoxicity rating SETVI: 60
[13]; 250 g ai/ha
  phytotoxicity rating SETVI: 90
[14]; 63 g ai/ha
  phytotoxicity rating CORN: 35
[14]; 250 g ai/ha
  phytotoxicity rating CORN: 90
[15]; 63 g ai/ha
  phytotoxicity rating RICE: 60
[15]; 250 g ai/ha
  phytotoxicity rating RICE: 90
[16]; 63 g ai/ha
  Pre-emerge Herbicidal Activity, phytotoxicity rating (0-100), ABUTH: 100
[16]; 250 g ai/ha
  Pre-emerge Herbicidal Activity, phytotoxicity rating (0-100), ABUTH: 100
[17]; 63 g ai/ha
  Pre-emerge Herbicidal Activity, phytotoxicity rating (0-100), CASOB: 40
[17]; 250 g ai/ha
  Pre-emerge Herbicidal Activity, phytotoxicity rating (0-100), CASOB: 100
[18]; 63 g ai/ha
  Pre-emerge Herbicidal Activity, phytotoxicity rating (0-100), ECHCG: 85
[18]; 250 g ai/ha
  Pre-emerge Herbicidal Activity, phytotoxicity rating (0-100), ECHCG: 100
[19]; 63 g ai/ha
  Pre-emerge Herbicidal Activity, phytotoxicity rating (0-100), CHEAL: 100
[19]; 250 g ai/ha
  Pre-emerge Herbicidal Activity, phytotoxicity rating (0-100), CHEAL: 100
[20]; 63 g ai/ha
  Pre-emerge Herbicidal Activity, phytotoxicity rating (0-100), IPOHE: 90
[20]; 250 g ai/ha
  Pre-emerge Herbicidal Activity, phytotoxicity rating (0-100), IPOHE: 100
[21]; 63 g ai/ha
  Pre-emerge Herbicidal Activity, phytotoxicity rating (0-100), AMBEL: 80
[21]; 250 g ai/ha
  Pre-emerge Herbicidal Activity, phytotoxicity rating (0-100), AMBEL: 100
[22]; 63 g ai/ha
  Pre-emerge Herbicidal Activity, phytotoxicity rating (0-100), DIGSA: 90
[22]; 250 g ai/ha
  Pre-emerge Herbicidal Activity, phytotoxicity rating (0-100), DIGSA: 100
[23]; 63 g ai/ha
  Pre-emerge Herbicidal Activity, phytotoxicity rating (0-100), SORHA: 80
[23]; 250 g ai/ha
  Pre-emerge Herbicidal Activity, phytotoxicity rating (0-100), SORHA: 100
[24]; 63 g ai/ha
  Pre-emerge Herbicidal Activity, phytotoxicity rating (0-100), SETVI: 10
[24]; 250 g ai/ha
  Pre-emerge Herbicidal Activity, phytotoxicity rating (0-100), SETVI: 100
